# Like-named read-outs stand apart in the source and are kept apart here.
# Experiments:
# Format in all cases: cell-based
# IL-21 = assay: Cytokine release after LPS induction on human whole blood: IL-21
# Experimental: (§1) Aim of this in vitro method is to assess compounds effects on release of a panel of cytokines from whole blood following lipopolysaccharide (LPS) induced inflammatory reaction. Whole blood was incubated with compounds for 1 h prior to LPS induction. Cytokine levels in blood were measured using a multiplex FACS-based panel.
# (§2) IC50 values determined for the tested compounds expressed in microM [μM] and the values for the inhibition of cytokines were listed for each compound.
# (§3) Effect on cytokines release after LPS induction was performed on the compounds dissolved in DMSO or H2O to reach 10-fold concentrated stock solutions and dissolved in culture media.
# (§4) Test system: Whole blood was removed from a single donor (into lithium heparin coated tubes; BD Vacutainer; 367886) and diluted 1:5 with RPMI 1640 (Thermo Fisher, 61870036). Within 30 minutes of sampling, blood was incubated with compounds for 1 h prior to LPS stimulation (O111:B4—Sigma L4391; 10 ng/ml final concentration). Stimulation continued under standard cell culture conditions (37° C. with 5% CO2) overnight (18 h), after which plates were centrifuged and supernatant removed and frozen at −80° C. until used for analyses.
# (§5) Dilution of test compounds: 10×concentrated solutions (concerning to the final assay concentrations) of each test compound were prepared with the appropriate solvent (in DMSO or in water). These 10× compound solutions (10 μl) were then added to 90 μl pre-diluted whole blood (whole blood: RPMI1640, 1:5) resulting in the final assay concentration.
# (§6) Test method: Diluted whole blood (80 μl) was pre-incubated with compounds (10 μl) to give final assay concentrations of 100, 30, 10, 3, 1, 0.3 and 0.1×10^−6M. Blood was incubated at 37° C. with 5% CO2 for 1 h. LPS was diluted in cell culture media to a concentration of […]; 10 μl was added to the whole blood to give a final concentration of 10 ng/ml. Plates were incubated at 37° C. for 18 h. Plates were centrifuged at 3,000 RPM for 5 minutes at 4° C. and supernatant removed and frozen at −80° C. until FACS analysis was carried out.
# (§7) Cytokine release was measured using a custom multiplex system (ELISA Genie) according to manufacturers instructions. Prepared samples were run on an Attune NxT flow cytometer (Thermo Fisher).
# (§8) Quantification of cytokine release inhibition: known concentration standards were run as part of the cytokine panel to allow quantification of each cytokine concentration in each sample. This was carried out using FCAP Array v3.0 software.
# (§9) Results: The dose response relationship on cytokine release following LPS induction of inflammatory response in whole blood was assessed for all compounds. IC50 values were determined for each compound for a panel of cytokines (GM-CSF, IFN-gamma, IL-1beta, IL-2, IL-4, IL-5, IL-6, IL-8, IL-9, IL-10, IL-12p40, IL-13, IL-17A, IL-17F, IL-18, IL-21, IL-22, IL-33, TGF-beta, TNF-alpha, TNF-beta).
# IL-17F = assay: Cytokine release after LPS induction on human whole blood: IL-17F
# Experimental: as §1, §2, §3, §4, §5, §6, §7, §8, §9
# TNF-alpha = assay: Cytokine release after LPS induction on human whole blood: TNFα
# Experimental: as §1, §2, §3, §4, §5, §6, §7, §8, §9
# IL-33 = assay: Cytokine release after LPS induction on human whole blood: IL-33
# Experimental: as §1, §2, §3, §4, §5, §6, §7, §8, §9
# IL-13 = assay: Cytokine release after LPS induction on human whole blood: IL-13
# Experimental: as §1, §2, §3, §4, §5, §6, §7, §8, §9
# IL-12p70 = assay: Cytokine release after LPS induction on human whole blood: IL-12p70
# TNF-beta = assay: Cytokine release after LPS induction on human whole blood: TNFβ
# Experimental: as §1, §2, §3, §4, §5, §6, §7, §8, §9
# IL-6 = assay: Cytokine release after LPS induction on human whole blood: IL-6
# Experimental: as §1, §2, §3, §4, §5, §6, §7, §8, §9
# IL-10 = assay: Cytokine release after LPS induction on human whole blood: IL-10
# Experimental: as §1, §2, §3, §4, §5, §6, §7, §8, §9
# [1] = Homo sapiens, LPS 10 ng/ml, 18 h, read-out: Whole Blood: IL-21 IC50
# [2] = human whole blood, inhibition of LPS induced inflammation, read-out: IC50 IL-21
# [3] = Homo sapiens, LPS 10 ng/ml, 18 h, read-out: Whole Blood: IL-17F IC50
# [4] = human whole blood, inhibition of LPS induced inflammation, read-out: IC50 IL-17F
# [5] = Homo sapiens, LPS 10 ng/ml, 18 h, read-out: Whole Blood: TNF α IC50
# [6] = human whole blood, inhibition of LPS induced inflammation, read-out: IC50 TNFa
# [7] = Homo sapiens, LPS 10 ng/ml, 18 h, read-out: Whole Blood: IL-33 IC50
# [8] = human whole blood, inhibition of LPS induced inflammation, read-out: IC50 IL-33
# [9] = Homo sapiens, LPS 10 ng/ml, 18 h, read-out: Whole Blood: IL-13 IC50
# [10] = human whole blood, inhibition of LPS induced inflammation, read-out: IC50 IL-13
# [11] = Homo sapiens, LPS 10 ng/ml, 18 h, read-out: Whole Blood: IL-12p70 IC50
# [12] = human whole blood, inhibition of LPS induced inflammation, read-out: IC50 IL-12p70
# [13] = Homo sapiens, LPS 10 ng/ml, 18 h, read-out: Whole Blood: TNF β IC50
# [14] = human whole blood, inhibition of LPS induced inflammation, read-out: IC50 β
# [15] = Homo sapiens, LPS 10 ng/ml, 18 h, read-out: Whole Blood: IL-6 IC50
# [16] = human whole blood, inhibition of LPS induced inflammation, read-out: IC50 IL-6
# [17] = Homo sapiens, LPS 10 ng/ml, 18 h, read-out: Whole Blood: IL-10 IC50
# [18] = human whole blood, inhibition of LPS induced inflammation, read-out: IC50 IL-10
Compound,IC50 (IL-21; [1]) [µM],IC50 (IL-21; [2]) [µM],IC50 (IL-17F; [3]) [µM],IC50 (IL-17F; [4]) [µM],IC50 (TNF-alpha; [5]) [µM],IC50 (TNF-alpha; [6]) [µM],IC50 (IL-33; [7]) [µM],IC50 (IL-33; [8]) [µM],IC50 (IL-13; [9]) [µM],IC50 (IL-13; [10]) [µM],IC50 (IL-12p70; [11]) [µM],IC50 (IL-12p70; [12]) [µM],IC50 (TNF-beta; [13]) [µM],IC50 (TNF-beta; [14]) [µM],IC50 (IL-6; [15]) [µM],IC50 (IL-6; [16]) [µM],IC50 (IL-10; [17]) [µM],IC50 (IL-10; [18]) [µM]
"O=C(O)c1cc(NC(=O)c2cc(O)cc(C(=O)Nc3ccc(O)c(C(=O)O)c3)c2O)ccc1O [IIc-007a, 5-(3-(3-carboxy-4-hydroxyphenylaminocarbonyl)-2,5-dihydroxybenzamido)-2-hydroxy benzoic acid]",9.41,9.41,0.26,0.26,0.03,0.03,0.18,0.18,0.25,0.25,3.37,3.37,0.29,0.29,0.05,0.05,17.9,17.9
"O=C(O)c1cc(O)ccc1NC(=O)c1cc(O)cc(C(=O)Nc2ccc(O)cc2C(=O)O)c1O [IIc-009a, 2-(3-(2-carboxy-4-hydroxyphenylaminocarbonyl)-2,5-dihydroxybenzamido)-5-hydroxyl benzoic acid]",8.01,8.01,0.13,0.13,0.11,0.11,0.29,0.29,0.13,0.13,> 100,100,6.94,6.94,0.27,0.27,11.3,11.3
"O=C(O)c1cc(O)cc(CSCc2cc(O)cc(C(=O)O)c2O)c1O [IVc-058a, 3-((2,5-Dihydroxy-3-carboxyphenyl)methylthiomethyl)-2,5-dihydroxybenzoic acid]",3.2,3.2,86.8,86.8,0.18,0.18,33.9,33.9,55.9,55.9,4.23,4.23,59.3,59.3,0.21,0.21,16.4,16.4
"O=C(O)c1cc(O)cc(CS(=O)(=O)Cc2cc(O)cc(C(=O)O)c2O)c1O [IVc-059a, 3-((2,5-Dihydroxy-3-carboxyphenyl)methylsulfonylmethyl)-2,5-dihydroxybenzoic acid]",1.87,1.87,> 100,100,0.16,0.16,27.5,27.5,> 100,100,42,42,0.33,0.33,0.11,0.11,1.31,1.31
COC(=O)c1cc(OC(C)=O)cc(CS(=O)(=O)Cc2cc(OC(C)=O)cc(C(=O)OC)c2OC(C)=O)c1OC(C)=O [IVc-059a-E2-A4],> 100,100,25.8,25.8,0.3,0.3,23.2,23.2,18.7,18.7,51.4,51.4,19.4,19.4,0.99,0.99,16.8,16.8

# — patent US20230150951A1, “2,5- OR 2,6-DISUBSTITUTED HYDROQUINONE DERIVATIVES WITH AT LEAST ONE CARBOXY, SULFO OR AMIDO GROUP USEFUL AS MEDICAMENTS” (OM PHARMA SA, priority 2020, published 2023)
